Bridge positions count the residues as written; N and C are the ends. Square brackets hold non-standard residues; d marks the D form. Peptide text beside a SMILES is read from it. * marks the point of attachment. pGlu = O=C1CC[C@@H](C(=O)O)N1; NHPhenethyl = c1ccc(CCN*)cc1; Nle = CCCC[C@H](N)C(=O)O; Aib = CC(C)(N)C(=O)O
Key:
hAPJ = molecular target: T1, hAPJ (Homo sapiens, UniProt P35414); assay: hAPJ Calcium Flux Assay; assay type: cell-based; conditions: Chem-5 APJ stable cells, FLIPR calcium flux; read-out: hAPJ Ca2+ Flux EC50
T1 sequence (P35414 1-380): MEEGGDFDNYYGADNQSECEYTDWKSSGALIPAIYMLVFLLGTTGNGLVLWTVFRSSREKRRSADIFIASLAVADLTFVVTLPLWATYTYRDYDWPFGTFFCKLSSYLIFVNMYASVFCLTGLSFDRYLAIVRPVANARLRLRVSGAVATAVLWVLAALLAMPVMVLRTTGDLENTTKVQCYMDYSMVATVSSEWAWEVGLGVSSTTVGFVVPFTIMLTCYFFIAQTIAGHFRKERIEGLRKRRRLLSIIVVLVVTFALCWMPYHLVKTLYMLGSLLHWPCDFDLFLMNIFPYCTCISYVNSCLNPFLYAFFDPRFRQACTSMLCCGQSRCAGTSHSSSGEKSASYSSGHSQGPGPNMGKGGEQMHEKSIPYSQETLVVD
Protocol: Chem-5 APJ stable cells (Millipore # HTS068C) were plated in 384-well format with 10,000 cells/well in 25 ul growth media, then grown 24 hours in a 37° C. tissue culture incubator. One hour before the assay, 25 ul/well FLIPR Calcium 4 dye (Molecular Devices R8142) with 2.5 mM probenecid was added, and cells were incubated one hour in a 37° C. tissue culture incubator. Peptides were solubilized in HBSS, HEPES & 0.1% BSA buffer, and serially-diluted 10-fold, from 50 uM to 5 pM, in triplicate. FLIPR Tetra was used to add peptide to the cells with dye (1:5, for final peptide concentrations ranging from 10 uM to 1 pM). FLIPR dye inside the cells emitted fluorescence after binding to calcium, while fluorescence from outside the cells was masked. Fluorescence was measured using 470-495 excitation and 515-575 emission wavelengths on the FLIPR Tetra. Readings were done for 3 minutes total, beginning 10 seconds before the peptide addition. Maximum-minimum values were calculated and plotted for each peptide concentration, and GraphPad prism software was used to calculate EC50 values at the curve inflection points, for calcium flux stimulation by peptides.

[1] = Plasma stability assay (LC-MS); assay type: in vitro ADME; conditions: male, Sprague-Dawley, heparinized rat plasma, 37° C., Table 3, read-out: Plasma stability t½
Protocol: Working solution: 1 mg/mL test article is prepared in Milli-Q water
Extraction solution: Methanol:Acetonitrile:Water (1:1:1) with 0.1% Formic Acid and 400 ng/mL Glyburide.
Plasma: Male Sprague-Dawley rat plasma (with sodium heparin), purchased from Bioreclamation LLC (Liverpool, N.Y.).
Test article was prepared in one of the following biological matrices: heparinized rat plasma, heparinized rat whole blood or lung homogenate. The plasma and whole blood sample was prepared at 5000 ng/mL by adding 5 uL of 1 mg/mL Working solution to 995 uL of rat plasma or whole blood. Lung homogenate samples were prepared by diluting lung homogenate to 1 mg/ml protein concentration with phosphate buffered saline (PBS), followed by addition of 5 uL Working solution to 995 uL diluted lung homogenate. The samples were incubated at 37° C. with gentle shaking (65˜75 rpm) in a water bath incubator. At times 0 min, 5 min, 15 min, 30 min, 60 min, 120 and 240 min, 25 uL aliquots of incubation samples were transferred to 96-well plate and immediately protein precipitated using 150 uL of Extraction solution. After completion of incubation experiment, the sample plate was centrifuged at 4000 rpm at 4° C. for 10 minutes. Afterwards, a pipetting device (Tecan Temo) was used to transfer the supernatants to another plate and add 50 uL of water to all samples. The plate was vortexed prior to LC-MS analysis.
LC-MS Analysis of stability samples
HPLC: Agilent 1290 HPLC with autosampler
Column: MAC-MOD ACE C18, 3 μm, 30 mm×2.1 mm i.d.
Mobile phase A: 0.1% Formic acid in acetonitrile
Mobile phase B: 0.1% Formic acid in water

in vitro = conditions: rat, plasma
Protocol: The calcium flux protocol described above was followed, with the following changes. The peptides were also incubated with 5% rat plasma (Bioreclamation # [sequence]-M, Na Heparin-treated). Readings were taken at time points t0 and t24 hrs, after incubation in a 37° C. tissue culture incubator. Peptide plasma half-life in minutes was estimated by calculating the following:
2) Calculate slope of value above and

[2] = Surrogate Activity based Plasma stability t½
[3] = Surrogate activity-based Plasma stability t½

| Structure (SMILES) | EC50 (hAPJ) | half-life at 5000 ng/mL [1] | half-life (in vitro; [2]) | half-life (in vitro; [3]) |
| --- | --- | --- | --- | --- |
| CCCC[C@@H]1NC(=O)[C@@H]2CCCN2C(=O)CNC(=O)[C@H](CCCCN)NC(=O)[C@H](Cc2c[nH]cn2)NC(=O)[C@H](CO)NC(=O)[C@@H](NC(=O)[C@H](CCCNC(=N)N)NC(=O)[C@@H]2CCCN2C(=O)[C@H](CCCNC(=N)N)NC(=O)[C@@H]2CCC(=O)N2)CSSC[C@@H](C(=O)N[C@@H](Cc2ccccc2)C(=O)O)NC1=O [Example 1, pE-R-P-R-C*-S-H-K-G-P-Nle-C*-F-OH] ([pGlu]RPRCSHKGP[Nle]CF-OH; disulfide 5-12) | 0.74 nM | 2.82 h | 2.12 h | 2.12 h |
| CCCC[C@@H]1NC(=O)[C@@H]2CCCN2C(=O)CNC(=O)[C@H](CCCCN)NC(=O)[C@@H](NC(=O)[C@H](CO)NC(=O)[C@H](CC(C)C)NC(=O)[C@H](CCCNC(=N)N)NC(=O)[C@@H]2CCCN2C(=O)[C@H](CCCNC(=N)N)NC(=O)[C@@H]2CCC(=O)N2)CSSC[C@@H](C(=O)N[C@@H](Cc2ccccc2)C(=O)O)NC1=O [Example 3, pE-R-P-R-L-S-C*-K-G-P-Nle-C*-F-OH] ([pGlu]RPRLSCKGP[Nle]CF-OH; disulfide 7-12) | 128 nM | 1.35 h | 0.433 h | 0.433 h |
| CCCC[C@@H]1NC(=O)[C@@H]2CCCN2C(=O)[C@@H](NC(=O)[C@H](CCCCN)NC(=O)[C@H](Cc2c[nH]cn2)NC(=O)[C@H](CO)NC(=O)[C@H](CC(C)C)NC(=O)[C@H](CCCNC(=N)N)NC(=O)[C@@H]2CCCN2C(=O)[C@H](CCCNC(=N)N)NC(=O)[C@@H]2CCC(=O)N2)CSSC[C@@H](C(=O)N[C@@H](Cc2ccccc2)C(=O)O)NC1=O [Example 14, pE-R-P-R-L-S-H-K-C*-P-Nle-C*-F-OH] ([pGlu]RPRLSHKCP[Nle]CF-OH; disulfide 9-12) | 0.81 nM | 1.08 h | 0.483 h | 0.483 h |
| CCCC[C@@H]1NC(=O)[C@@H]2CCCN2C(=O)[C@@H](NC(=O)[C@H](CCCCN)NC(=O)C(C)(C)NC(=O)[C@H](CO)NC(=O)[C@H](CC(C)C)NC(=O)[C@H](CCCNC(=N)N)NC(=O)[C@@H]2CCCN2C(=O)[C@H](CCCNC(=N)N)NC(=O)[C@@H]2CCC(=O)N2)CSSC[C@@H](C(=O)NCCc2ccccc2)NC1=O [Example 15, pE-R-P-R-L-S-Aib-K-C*-P-Nle-C*-NH(Phenethyl)] ([pGlu]RPRLS[Aib]KCP[Nle]C-NHPhenethyl; disulfide 9-12) | 4 nM | 0.7 h | 0.683 h | 0.683 h |
| CCCC[C@@H]1NC(=O)[C@@H]2CCCN2C(=O)[C@@H](NC(=O)[C@H](CCCCN)NC(=O)[C@H](Cc2c[nH]cn2)NC(=O)[C@@H](C)NC(=O)[C@H](CC(C)C)NC(=O)[C@H](CCCNC(=N)N)NC(=O)[C@@H]2CCCN2C(=O)[C@H](CCCNC(=N)N)NC(=O)[C@@H]2CCC(=O)N2)CSSC[C@@H](C(=O)N[C@H](Cc2ccccc2)C(=O)O)NC1=O [Example 17, pE-R-P-R-L-a-H-K-C*-P-Nle-C*-f-OH] ([pGlu]RPRL[dA]HKCP[Nle]C[dF]-OH; disulfide 9-12) | 1.9 nM | 8.42 h | 15.1 h | 15.1 h |
| CCCC[C@@H]1NC(=O)[C@@H]2CCCN2C(=O)[C@@H](NC(=O)[C@H](CCCCN)NC(=O)[C@H](Cc2c[nH]cn2)NC(=O)[C@@H](CO)NC(=O)[C@H](CC(C)C)NC(=O)[C@H](CCCNC(=N)N)NC(=O)[C@@H]2CCCN2C(=O)[C@H](CCCNC(=N)N)NC(=O)[C@@H]2CCC(=O)N2)CSSC[C@@H](C(=O)N[C@H](Cc2ccccc2)C(=O)O)NC1=O [Example 21, pE-R-P-R-L-s-H-K-C*-P-Nle-C*-f-OH] ([pGlu]RPRL[dS]HKCP[Nle]C[dF]-OH; disulfide 9-12) | 9.7 nM | – | – | 8.88 h |

— US9683018B2, “Disulfide cyclic polypeptides for the treatment of heart failure” (priority 2013, dated 2017)
